Experimental findings from ChEMBL document CHEMBL4739716, “Gpr139 receptor modulators” (2020) are described below.

The structures appear in SMILES notation.

Test [1] concerns the target T1, Probable G-protein coupled receptor 139 (Rattus norvegicus, UniProt P0C0W8).
T1 sequence (P0C0W8 whole entry): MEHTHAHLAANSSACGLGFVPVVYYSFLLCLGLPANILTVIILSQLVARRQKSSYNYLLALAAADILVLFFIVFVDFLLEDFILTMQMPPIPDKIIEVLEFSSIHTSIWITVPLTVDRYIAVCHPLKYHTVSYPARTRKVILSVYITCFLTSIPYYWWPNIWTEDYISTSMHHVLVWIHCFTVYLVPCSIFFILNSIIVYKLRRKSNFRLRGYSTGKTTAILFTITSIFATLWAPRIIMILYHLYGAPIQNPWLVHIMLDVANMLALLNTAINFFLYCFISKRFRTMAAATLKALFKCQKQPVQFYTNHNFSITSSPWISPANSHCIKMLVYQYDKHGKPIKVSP
The test can be described thus: Agonist activity at rat GPR139 expressed in CHO-K1 cells assessed as increase in calcium flux by calcium 5 dye based FLIPR assay. In kind it is cell-based. (In general: Calcium flux is commonly read through the fluorescence of an indicator in the cells.)

Test [2] addresses T2, Probable G-protein coupled receptor 139 (Homo sapiens, UniProt Q6DWJ6).
T2 sequence (Q6DWJ6 whole entry): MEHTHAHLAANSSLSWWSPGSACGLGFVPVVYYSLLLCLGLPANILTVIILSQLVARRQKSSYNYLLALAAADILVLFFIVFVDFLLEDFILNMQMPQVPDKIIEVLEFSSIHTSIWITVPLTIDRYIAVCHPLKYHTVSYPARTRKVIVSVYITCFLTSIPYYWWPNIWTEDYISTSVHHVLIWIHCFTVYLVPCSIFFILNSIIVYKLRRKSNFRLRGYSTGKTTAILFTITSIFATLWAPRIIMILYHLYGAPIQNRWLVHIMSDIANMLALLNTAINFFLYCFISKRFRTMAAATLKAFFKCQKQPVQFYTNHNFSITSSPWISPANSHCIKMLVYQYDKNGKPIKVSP
The test can be described thus: Agonist activity at human GPR139 expressed in CHO-K1 cells assessed as increase in calcium flux by calcium 5 dye based FLIPR assay. The class given is functional, cell-based.

Test [3] has as its target T3, Probable G-protein coupled receptor 139 (Homo sapiens) (UniProt Q6DWJ6).
T3 sequence (whole entry): T2 sequence (Q6DWJ6 whole entry)
Description: Agonist activity at human GPR139 expressed in CHO-K1 cells assessed as increase in calcium flux by calcium 5 dye based FLIPR assay relative to JNJ63533054. The class given is functional, cell-based.

The target in test [4] is T4, Probable G-protein coupled receptor 139 (Rattus norvegicus) (UniProt P0C0W8).
T4 sequence (whole entry): T1 sequence (P0C0W8 whole entry)
The test can be described thus: Agonist activity at rat GPR139 expressed in CHO-K1 cells assessed as increase in calcium flux by calcium 5 dye based FLIPR assay relative to JNJ63533054. In kind it is cell-based.

For the molecule `Cc1cc(C)n2c(=O)n(CC(=O)N[C@@H](C)c3ccc(Cl)cc3)nc2n1`, the EC50 in test [1] is ≥ 100 nM; in test [2] (cho-k1) it was 1 nM. Also, the figures for the Emax in test [3] (filed as agonist) and in test [4] were 50% and < 25%, respectively.

Turning to `Cc1ccc([C@H](C)NC(=O)Cn2nc3c(C4CCNC4)cccn3c2=O)cc1` (some centres not stated), the EC50 in test [1] and in test [2] was ≥ 100 nM in each case. Also, the Emax in test [3] (filed as agonist) and in test [4] (filed as agonist) was 50% in each case.

For `Cc1ccc([C@H](C)NC(=O)Cn2nc3cnc(C)cn3c2=O)cc1`, the EC50 in test [1] (cho-k1) and in test [2] (cho-k1) was 1 nM in each case. In addition, the results for the maximum response (Emax) in test [3] (filed as agonist) and in test [4] (filed as agonist) were > 80% and 50%, respectively.

Regarding `C[C@H](NC(=O)Cn1nc2cccnn2c1=O)c1ccc(OC(F)(F)F)cc1`, the values for the EC50 in test [1] (cho-k1) and in test [2] (cho-k1) were 10 nM and 1 nM, respectively. In addition, the maximum response (Emax) in test [3] (filed as agonist) was > 80%; in test [4] (filed as agonist) it was 50%.

`C[C@H](NC(=O)Cn1nc2ccc(N3CCCCC3)nn2c1=O)c1ccc(OC(F)(F)F)cc1`: the figures for the concentration giving a half-maximal response (EC50) in test [1] and in test [2] (cho-k1) were ≥ 100 nM and 10 nM, respectively. In addition, the Emax in test [3] is 25%; in test [4] it was < 25%.

Regarding `Cc1ccc([C@H](C)NC(=O)Cn2nc3cnccn3c2=O)cc1`, the EC50 in test [1] was ≥ 100 nM; in test [2] (cho-k1) it was 10 nM. The Emax is > 80% in test [3] (filed as agonist) and 50% in test [4] (filed as agonist).

On to `C[C@H](NC(=O)Cn1nc2ccccn2c1=O)c1ccc(OC(F)(F)F)cc1`, for which the EC50 in test [1] (cho-k1) and in test [2] (cho-k1) was 1 nM in each case. The Emax in test [3] (filed as agonist) is > 80%; in test [4] it was 25%.

As to `C[C@H](NC(=O)Cn1nc2ncccn2c1=O)c1ccc(Cl)c(Cl)c1`, the EC50 in test [1] (cho-k1) is 10 nM; in test [2] (cho-k1) it was 1 nM. The Emax in test [3] (filed as agonist) was > 80%; in test [4] (filed as agonist), 50%.

Consider `Cc1ccc([C@H](C)NC(=O)Cn2nc3ncccn3c2=O)cc1`, for which the EC50 in test [1] was ≥ 100 nM; in test [2] (cho-k1), 10 nM. Also, the maximal effect (Emax) in test [3] (filed as agonist) was > 80%; in test [4] it was 25%.

As for `Cc1nccn2c(=O)n(CC(=O)N[C@@H](C)c3ccc(Cl)c(F)c3)nc12`, the EC50 in test [1] and in test [2] was < 1 nM throughout. Besides, the maximal response (Emax) in test [3] (filed as agonist) and in test [4] (filed as agonist) was > 80% throughout.

`COc1ccn2c(=O)n(CC(=O)N[C@@H](C)c3ccc(C)cc3)nc2n1`: the EC50 in test [1] (cho-k1) and in test [2] (cho-k1) was 1 nM each time. Besides, the Emax in test [3] (filed as agonist) is > 80%; in test [4] (filed as agonist), 50%.

As to `C[C@H](NC(=O)Cn1nc2c(N3CCCCC3)nccn2c1=O)c1ccc(Cl)c(F)c1`, the EC50 in test [1] and in test [2] was < 1 nM each time. Also, the Emax in test [3] (filed as agonist) and in test [4] (filed as agonist) was > 80% throughout.

Consider `C[C@H](NC(=O)Cn1nc2cccc(N3CC(O)C3)n2c1=O)c1ccc(OC(F)(F)F)cc1`, for which the EC50 is 1 nM in test [1] (cho-k1) and < 1 nM in test [2]. For the same molecule, the Emax in test [3] (filed as agonist) is 50%; in test [4], 25%.

Take `C[C@H](NC(=O)Cn1nc2c(OC3CNC3)nccn2c1=O)c1ccc(Cl)c(F)c1`: the EC50 in test [1] and in test [2] was ≥ 100 nM throughout. In addition, the results for the Emax in test [3] (filed as agonist) and in test [4] were 50% and 25%, respectively.

For `C[C@H](NC(=O)Cn1nc2ccccn2c1=O)c1ccc(OC(F)F)cc1`, the EC50 came out at 10 nM in test [1] (cho-k1) and 1 nM in test [2] (cho-k1). Besides, the values for the maximal effect (Emax) in test [3] (filed as agonist) and in test [4] were > 80% and 25%, respectively.

Consider `Cc1ccc([C@H](C)NC(=O)Cn2nc3c(N)cccn3c2=O)cc1`, for which the EC50 in test [1] (cho-k1) and in test [2] (cho-k1) was 1 nM each time. Also, the figures for the Emax in test [3] (filed as agonist) and in test [4] (filed as agonist) were > 80% and 50%, respectively.

On to `CC1COCCN1c1cccc2nn(CC(=O)N[C@@H](C)c3ccc(Cl)c(F)c3)c(=O)n12` (some centres not stated), for which the EC50 is 1 nM in test [1] (cho-k1) and < 1 nM in test [2]. Moreover, the Emax in test [3] (filed as agonist) and in test [4] (filed as agonist) was > 80% in each case.

For the molecule `C[C@H](NC(=O)Cn1nc2cccc(N3CCN(C)CC3)n2c1=O)c1ccc(Cl)c(F)c1`, the EC50 in test [1] was ≥ 100 nM; in test [2] (cho-k1) it was 1 nM. In addition, the Emax in test [3] (filed as agonist) and in test [4] (filed as agonist) was > 80% each time.

The term EC50 denotes the concentration needed to bring the measured effect to its halfway point. A word on the Emax: it is the size of the effect at its maximum, as opposed to the concentration needed.
